In ChEMBL document CHEMBL1130849, “Novel 1,3-disubstituted-5,10-dihydro-5,10-dioxo-1H-benzo[g] isochromene-3 carboxamides as potent antitumor agents” (Bioorg Med Chem Lett, 1998):

How the values were obtained:
HT-29 [1] = test: Compound was tested for its antitumor activity against HT-29 colon carcinoma cell line; format: functional, cell-based; settings: Homo sapiens
SK-OV-3 = test: Compound was tested for its antitumor activity against SKOV3 human ovarian cancer cell line; format: functional, cell-based
[2] = Selectivity ratio was determined for P-170 glycoprotein mediated multidrug resistant variant SKVLB to the ovarian cancer cell line SK-OV3.; format: functional, Cancer cell lines
HT-29 [3] = test: Compound was tested for its antitumor activity against HT-29 colon carcinoma cell line; No activity.; format: functional, cell-based, Homo sapiens

Row | SMILES | IC50 (HT-29 [1]) [nM] | IC50 (SK-OV-3) [nM] | Ratio [2] | IC50 (HT-29 [3])
1 | CN(C)CCCNC(=O)C1=CC2=C(C(=O)c3ccccc3C2=O)C(O)O1 (centres undefined) | 6300 | 3700 | 6.3 | 
2 | COC1OC(C(=O)NCCCN(C)C)=CC2=C1C(=O)c1ccccc1C2=O (centres undefined) | 70 | 7 | 9.3 | 
3 | COC1OC(C(=O)NCCC[S+](C)C)=CC2=C1C(=O)c1ccccc1C2=O.[Cl-] (centres undefined) |  | 1300 | 13 | Not Active
4 | O=C(NCCCBr)C1=CC2=C(CO1)C(=O)c1ccccc1C2=O | 2760 | 1060 | 2.6 | 
5 | COC1OC(C(=O)NCCN2CCCC2)=CC2=C1C(=O)c1ccccc1C2=O (centres undefined) | 170 | 50 | 10 | 
6 | CN(C)CCCNC(=O)C1=CC2=C(CO1)C(=O)c1ccccc1C2=O |  | 220 | 5.4 | Not Active
7 | CCCC1OC(C(=O)NCCCN(C)C)=CC2=C1C(=O)c1ccccc1C2=O (centres undefined) | 390 | 280 | 2 | 
8 | COC1OC(C(=O)NCCCO)=CC2=C1C(=O)c1ccccc1C2=O (centres undefined) | 1540 | 60 | 6 | 
9 | COc1cccc2c1C(=O)c1c(O)c3c(c(O)c1C2=O)C[C@@](O)(C(=O)CO)C[C@@H]3O[C@H]1C[C@H](N)[C@H](O)[C@H](C)O1 [DOXORUBICIN] | 340 | 20 | 300 | 
10 | COC1OC(C(=O)NCC[N+](C)(C)C)=CC2=C1C(=O)c1ccccc1C2=O (centres undefined) | 32300 | 19500 | 1.5 | 
11 | COC1OC(C(=O)NCCCCN(C)C)=CC2=C1C(=O)c1ccccc1C2=O (centres undefined) |  | 140 | 4.1 | Not Active
12 | COC1OC(C(=O)NCCCNC(=O)C2=CC3=C(C(=O)c4ccccc4C3=O)C(OC)O2)=CC2=C1C(=O)c1ccccc1C2=O (centres undefined) | 150 | 14 | 111 | 
13 | COC1OC(C(=O)N(C)CCN(C)C)=CC2=C1C(=O)c1ccccc1C2=O (centres undefined) | 1180 | 110 | 5.4 | 
